Laboratory results taken from patent US20260144890A1, “ANTIBODY DRUG CONJUGATE COMPRISING NMT INHIBITOR CONJUGATED TO AN ANTIBODY” (MyricX Pharma Limited, priority 2024, published 2026).
Where two headings read alike, the source gives them in different places.

Assays:
[1] = system: BT474 breast cancer cells; assay: Orthotopic breast cancer xenograft model (BT474); assay type: in vivo, mouse
Protocol: During the study, body weights were measured three times weekly for all animals. Animals were given Diet Gel for the entire duration on the study.

[2] = system: JIMT-1 human breast xenograft; assay type: in vivo
From the text: The study was terminated on the Study Day 60.

[3] = system: SU-DHL-10 cell line; assay: Cell cytotoxicity in SU-DHL-10 cell line (CTG, 72 h); assay type: cell-based; settings: Homo sapiens, SU-DHL10, 72 h, 72 h treatment
Protocol: Certain NMT inhibitors were tested in the SU-DHL-10 cell line (human B cell lymphoma). Compounds which show efficacy in this assay are expected to be useful as agents for treating or preventing hyperproliferative disorders such as cancer.
Cells were seeded in 96-well microplates and treated with compounds or cisplatin (as a positive control) at 9 increasing concentrations in technical triplicate. […] On day 1, 90 μL of various cell suspensions with the number of cells ranging from 5000-8000 cells/well were seeded into wells of a 96-well plate (Corning). The number of cells to be seeded was previously determined. • 2. All 96-wells plates with cells were placed in an incubator overnight at 37° C. with 5% CO2. • 3. On day 2, cells were observed under a microscope ensuring the cells treated with vehicle control were in good condition. • 4. A dilution series of the test compounds and cisplatin were prepared at 10× the final concentrations required. 10 μL/well of 10× compound solution was added to the corresponding plates. The final volume was 100 μL/well for all the plates. […]
Luminescence was recorded using an EnVision Multi Label Reader. […]
(LumTest article=luminescence in test article treated well; LumNone treated=luminescence in vehicle treated well; LumMedium control=luminescence in a well containing only medium and no cells; LumNone treated−LumMedium control was set as 100%).

[4] = system: gastric cancer organoid GA6866B; assay: Gastric cancer organoid viability (CTG 3D), GA6866B; assay type: cell-based; parameters: unit not given beside the values
Protocol: (§1) Day −1: Patient derived gastric cancer organoids (PDXOs) are sheared to uniform sizes and the required number of organoids are combined 1:1 with 50% Matrigel to produce the right size of the organoids to perform the screen.
(§2) Day 0: Organoid seeding • 1. Collect organoids from each well by adding 20 μl 100× Dispase solution to each well from a 6-well plate, which contains 2 ml of organoid medium. • 2. Put the plates back in the incubator, 37° C. for 30 min. • 3. Collect organoids from all wells and pipet through a pre-wet 100 μm filter into a 50 ml plastic tube. • 4. Once all wells have been filtered over 100 μm filters, filter the flow though over a pre-wet 20 μm filter. • 5. […]
(§3) • 10. Place screening plates back into the incubator before adding compounds and day 0 reading. […] One is for day 0 reading (TO) and the other for reading at the end point.
(§4) Day 0: Compounds treatment and Day 0 baseline CTG (cell titre glo) reading • 11. […] For day 0 reading plate, add 40 μL of CTG 3D per well and read luminescent signal on Envision plate reader.
(§5) Day 6: Endpoint CTG reading. • 1. Read assay plates for luminescent CTG signal at the end of the assays: add 40 μL of CTG 3D per well by Multidrop dispenser, mix the contents for 5 min on the plate shaker, and incubate the plates for 30 min at room temperature in dark. Read luminescent signal on Envision plate reader. […]

[5] = system: gastric cancer organoid GA0119B; assay: Gastric cancer organoid viability (CTG 3D), GA0119B; assay type: cell-based; parameters: AUC (area under curve): unit not given beside the values
Protocol: as §1, §2, §3, §4, §5

[6] = system: gastric cancer organoid GA0091B; assay: Gastric cancer organoid viability (CTG 3D), GA0091B; assay type: cell-based; parameters: AUC (area under curve): unit not given beside the values
Protocol: as §1, §2, §3, §4, §5

[7] = system: gastric cancer organoid GA3102B; assay: Gastric cancer organoid viability (CTG 3D), GA3102B; assay type: cell-based; parameters: unit not given beside the values
Protocol: as §1, §2, §3, §4, §5

[8] = system: gastric cancer organoid GA3055B; assay: Gastric cancer organoid viability (CTG 3D), GA3055B; assay type: cell-based; parameters: unit not given beside the values
Protocol: as §1, §2, §3, §4, §5

[9] = system: gastric cancer organoid GA6815B; assay: Gastric cancer organoid viability (CTG 3D), GA6815B; assay type: cell-based; parameters: AUC (area under curve): unit not given beside the values
Protocol: as §1, §2, §3, §4, §5

[10] = system: gastric cancer organoid GA2434B; assay: Gastric cancer organoid viability (CTG 3D), GA2434B; assay type: cell-based; parameters: unit not given beside the values
Protocol: as §1, §2, §3, §4, §5

[11] = system: gastric cancer organoid GA0087B; assay: Gastric cancer organoid viability (CTG 3D), GA0087B; assay type: cell-based; parameters: AUC (area under curve): unit not given beside the values
Protocol: as §1, §2, §3, §4, §5

[12] = system: gastric cancer organoid GA0429B; assay: Gastric cancer organoid viability (CTG 3D), GA0429B; assay type: cell-based; parameters: unit not given beside the values
Protocol: as §1, §2, §3, §4, §5

[13] = system: gastric cancer organoid GA6894B; assay: Gastric cancer organoid viability (CTG 3D), GA6894B; assay type: cell-based; parameters: AUC (area under curve): unit not given beside the values
Protocol: as §1, §2, §3, §4, §5

[14] = system: gastric cancer organoid GA6891B; assay: Gastric cancer organoid viability (CTG 3D), GA6891B; assay type: cell-based; parameters: AUC (area under curve): unit not given beside the values
Protocol: as §1, §2, §3, §4, §5

[15] = system: gastric cancer organoid GA6833B; assay: Gastric cancer organoid viability (CTG 3D), GA6833B; assay type: cell-based; parameters: unit not given beside the values
Protocol: as §1, §2, §3, §4, §5

[16] = system: gastric cancer organoid GA6877B; assay: Gastric cancer organoid viability (CTG 3D), GA6877B; assay type: cell-based; parameters: unit not given beside the values
Protocol: as §1, §2, §3, §4, §5

[17] = system: gastric cancer organoid GA2109B; assay: Gastric cancer organoid viability (CTG 3D), GA2109B; assay type: cell-based; parameters: unit not given beside the values
Protocol: as §1, §2, §3, §4, §5

[18] = system: gastric cancer organoid GA0098B; assay: Gastric cancer organoid viability (CTG 3D), GA0098B; assay type: cell-based; parameters: AUC (area under curve): unit not given beside the values
Protocol: as §1, §2, §3, §4, §5

[19] = system: gastric cancer organoid GA0060B; assay: Gastric cancer organoid viability (CTG 3D), GA0060B; assay type: cell-based; parameters: unit not given beside the values
Protocol: as §1, §2, §3, §4, §5

[20] = system: VCaP human prostate cancer xenograft; assay: VCaP prostate cancer xenograft model; assay type: in vivo, mouse
Protocol: In this study, 144 mice were inoculated subcutaneously in the right front flank region with 1×10^7 viable VCaP tumour cells resuspended in 0.1 mL of PBS mixed with Matrigel (1:1) for tumour development on Study Day −20. 80 mice were assigned to 8 treatment groups when tumour volumes averaged ˜162.16 mm^3 on Study Day 0. Dosing commenced the following day and all animals were dosed intravenously with ADC Example 4, ifinatamab-deruxtecan (ifinatamab-Dxd) or unconjugated ifinatamab. All mice received two doses of test agent, on Study Day 1 and Study Day 8. The study was terminated on Study Day 30. • The 8 groups were assigned as follows: […]

[21] = system: LNCaP tumours; assay: LNCaP prostate cancer xenograft model; settings: for Day 28 tumour volume (mean ± SEM) / Tumour growth inhibition (TGI, %): IV, Q7D (x3); for Tumour growth inhibition (TGI, %): day 28
Protocol: A total of 84 male NOD SCID mice aged 5-8 weeks and weighing 25-30 g were used for the study.
• Duration of observation: 35 days. • Dosing volume: 5 mL/kg for all IV doses

[22] = system: JIMT-1 human breast xenograft; assay: JIMT1 breast cancer xenograft model (Balb/c nude mice, ADC Example 1); assay type: in vivo, mouse
Protocol: In this study, 72 mice were inoculated subcutaneously in the right front flank region with 1×10^7 viable JIMT-1 tumour cells resuspended in Matrigel (1:1) on Study Day −15. When tumours reached a tumour volume of approximately 120-150 mm^3, 60 mice with the most similarly sized tumours were randomly assigned to 6 treatment groups on Study Day 0. […] The study was terminated on Study Day 58. The dosing regimen was as follows:
The body weight of all mice in each group was measured and recorded three times weekly throughout the duration of the study. Moreover, the tumour volume was measured (mm^3) and recorded using digital calipers three times weekly throughout the duration of the study. In particular, the length, width, and depth of the tumour were each measured and used to calculate tumour volume (mm^3). The results are shown in FIG. 58, FIG. 59, and FIG. 60.

Molecule: CNCc1cnc2ccc(-c3ccc(F)c(F)c3OCCc3c(C(O)C(C)(C)C)nn(C)c3C)cn12 (stereo not shown) [NMT inhibitor 1, 1-(4-(2-(2,3-difluoro-6-(3-((methylamino)methyl)imidazo[1,2-a]pyridin-6-yl)phenoxy)ethyl)-1,5-dimethyl-1H-pyrazol-3-yl)-2,2-dimethylpropan-1-ol]
- tumour size ([1]; 2.0 mg/kg, 2 days dosing then 5 day holiday, stopped at day 13): reduced tumour size
- body weights of mice ([1]; trastuzumab and ADC 2.5 and 5 mg/kg, NMT inhibitor 1 2 mg/kg): decreased significantly

Molecule: sacituzumab govitecan
- tumour volume compared to vehicle alone ([2]; 2.5 mg/kg): significant decrease
- ΔTGI (Study Day 28) ([2]; 2.5 mg/kg QW x 2 weeks IV): 13.13%
- tumour volume compared to vehicle alone ([2]; 5 mg/kg): significant decrease
- ΔTGI (Study Day 28) ([2]; 5 mg/kg QW x 2 weeks IV): 23.39%
- efficacy of treatment ([2]; Group 4, 5 mg/kg): only partially efficacious

Molecule: CNCc1cnc2ccc(-c3ccc(F)c(F)c3OCCc3c(C(O)C(C)(C)C)nn(C)c3C)cn12 (single isomer, unassigned) [compound 13, 1-(4-(2-(2,3-difluoro-6-(3-((methylamino)methyl)imidazo[1,2-a]pyridin-6-yl)phenoxy)ethyl)-1,5-dimethyl-1H-pyrazol-3-yl)-2,2-dimethylpropan-1-ol]
- IC50 [3]: 0.7 nM

Molecule: sacituzumab
- tumour volume compared to vehicle alone ([2]; 2.5 mg/kg): no significant difference
- ΔTGI (Study Day 28) ([2]; 2.5 mg/kg QW x 2 weeks IV): 12.11%
- tumour volume compared to vehicle alone ([2]; 5 mg/kg): significant decrease
- ΔTGI (Study Day 28) ([2]; 5 mg/kg QW x 2 weeks IV): 14.44%

Molecule: CN[C@@H]1C[C@H]2O[C@@](C)([C@@H]1OC)n1c3ccccc3c3c4c(c5c6ccccc6n2c5c31)C(=O)NC4 [Staurosporine]
- AUC (area under curve) [4]: 201.1356
- AUC (area under curve) [5]: 212.2837
- IC50 [5]: 8.9 nM
- AUC (area under curve) [6]: 199.9
- IC50 [6]: 22.2 nM
- AUC (area under curve) [7]: 200.7667
- AUC (area under curve) [8]: 144.7132
- AUC (area under curve) [9]: 194.3428
- IC50 [9]: 15.8 nM
- AUC (area under curve) [10]: 226.6809
- AUC (area under curve) [11]: 113.2
- IC50 [11]: 2.9 nM
- AUC (area under curve) [12]: 170.8729
- AUC (area under curve) [13]: 230.6577
- IC50 [13]: 8.5 nM
- AUC (area under curve) [14]: 174.0868
- IC50 [14]: 9 nM
- AUC (area under curve) [15]: 158.1701
- AUC (area under curve) [16]: 175.472
- AUC (area under curve) [17]: 233.3136
- AUC (area under curve) [18]: 239.6
- IC50 [18]: 22.1 nM
- AUC (area under curve) [19]: 85.1

Molecule: ifinatamab
- tumour volume compared to vehicle alone ([20]; 2.5 mg/kg): no significant difference
- ΔTGI (Study Day 17) ([20]; 2.5 mg/kg QW x 2 weeks IV): 8.47%
- tumour volume compared to vehicle alone ([20]; 5 mg/kg): no significant difference
- ΔTGI (Study Day 17) ([20]; 5 mg/kg QW x 2 weeks IV): 12.44%
- LNCaP tumour volume compared to vehicle ([21]; 5 mg/kg): no significant effect
- Day 28 tumour volume (mean ± SEM) ([21]; 5 mg/kg): 551.4 ± 73.1 mm^3
- Tumour growth inhibition (TGI, %) ([21]; 5 mg/kg): 30.6%
- LNCaP tumour volume compared to vehicle ([21]; 10 mg/kg): no significant effect
- Day 28 tumour volume (mean ± SEM) ([21]; 10 mg/kg): 666.56 ± 103.2 mm^3
- Tumour growth inhibition (TGI, %) ([21]; 10 mg/kg): 13.0%

Molecule: trastuzumab emtansine
- tumour volume compared to vehicle alone ([22]; 5 mg/kg IV on Study Days 0, 7, 28 and 35, agent alone): no decrease in tumour volume
- mice that completely responded (of 10) ([22]; 5 mg/kg IV, agent alone): no mice
- mice that partially responded (of 10) ([22]; 5 mg/kg IV, agent alone): no mice

B1: ifinatamab-DXd (conjugate, chains of the INN, looked up)
VH: QVQLVQSGAEVKKPGSSVKVSCKASGYTFTNYVMHWVRQAPGQGLEWMGYINPYNDDVKYNEKFKGRVTITADESTSTAYMELSSLRSEDTAVYYCARWGYYGSPLYYFDYWGQGTLVTVSS
VL: EIVLTQSPATLSLSPGERATLSCRASSRLIYMHWYQQKPGQAPRPLIYATSNLASGIPARFSGSGSGTDFTLTISSLEPEDFAVYYCQQWNSNPPTFGQGTKVEIK
modifications: deruxtecan (DXd) payload
- tumour volume compared to vehicle alone ([20]; 2.5 mg/kg): no significant difference
- ΔTGI (Study Day 17) ([20]; 2.5 mg/kg QW x 2 weeks IV): 5.24%
- tumour volume compared to vehicle alone ([20]; 5 mg/kg): significantly higher tumour volume
- ΔTGI (Study Day 17) ([20]; 5 mg/kg QW x 2 weeks IV): 2.86%
- LNCaP tumour volume compared to vehicle ([21]; 5 mg/kg): slowed the growth of LNCaP tumours to a lesser extent
- Day 28 tumour volume (mean ± SEM) ([21]; 5 mg/kg): 364.6 ± 51.7 mm^3
- Tumour growth inhibition (TGI, %) ([21]; 5 mg/kg): 58.8%
- LNCaP tumour volume compared to vehicle ([21]; 10 mg/kg): significantly reduced the mean volume of LNCaP tumours
- Day 28 tumour volume (mean ± SEM) ([21]; 10 mg/kg): 259.5 ± 50.3 mm^3
- Tumour growth inhibition (TGI, %) ([21]; 10 mg/kg): 75.0%
